Source: paper PMC10886162, “Synthesis of Novel Artemisinin, Ciprofloxacin, and Norfloxacin Hybrids with Potent Antiplasmodial Activity” (Antibiotics, 2024)
One block for each compound: values may come before it.

Legend:
[1] = test system: CQ-resistant P. falciparum FcB1 strain; assay: In vitro growth inhibition of P. falciparum FcB1 ([3H]-hypoxanthine incorporation); type: cell-based, Plasmodium falciparum
Method: (§1) The chloroquine-resistant FcB1/Colombia and Dd2/Indochina strains of Plasmodium falciparum were obtained from the Protist Collection of the National Museum of Natural History, Paris, France (n° MNHN-CEU-2016-224-PfFCB1 and MNHN-CEU-2016-222-PfDD2). The parasites were maintained in vitro on human erythrocytes in RPMI 1640 medium supplemented by 8% (v/v) heat-inactivated human serum, at 37 °C, under an atmosphere of 5% CO2. The human red blood cells and serum were provided by the Établissement Français du Sang under the C-CPSL-UNT approval no. 13/EFS/126. The in vitro drug susceptibility assays were measured by [^3H]-hypoxanthine incorporation, as previously described. The drug stock solutions were prepared in DMSO. Briefly, the assays were performed in 96-well plates. The compounds were diluted in the culture medium (100 μL per well). The parasite cultures (100 μL, 2% parasitaemia, and 1% final hematocrit) were then added to each well and incubated for 24 h at 37 °C prior to the addition of 0.5 μCi of [^3H]- hypoxanthine (GE Healthcare, Paris, France, 1 to 5 Ci·mmol/mL) per well. After a further incubation of 24 h, the plates were frozen and thawed. The cell lysates were then collected onto fiberglass filters and counted in a liquid scintillation spectrometer. The growth inhibition for each drug concentration was determined through a comparison of the radioactivity incorporated in the treated culture with that in the control culture maintained on the same plate. The drugs were first evaluated for a range of fixed concentrations of 50, 5, 0.5, 0.05, and 0.005 μg/mL. […] The IC50 value was obtained from the drug concentration–response curve, and the results were expressed in μM or nM as the mean values ± standard deviations determined from several independent experiments. Artesunate (46) was used as an antimalarial drug control.

[2] = test system: CQ-resistant Dd2 strain of P. falciparum; assay: In vitro growth inhibition of P. falciparum Dd2 ([3H]-hypoxanthine incorporation); type: cell-based, Plasmodium falciparum; details: Plasmodium falciparum; CQ-resistant Dd2; mean +/− SD of at least three independent experiments
Method: as §1

[3] = Plasmodium falciparum, FCB1, CQ-resistant FcB1, mean +/− standard deviation of independent experiments (at least four in Tables 1-2, at least three in Tables 3-4)
[4] = Plasmodium falciparum, FCB1, CQ-resistant FcB1, IC50 determined from the compound tested at 50, 5, 0.5 µg/mL and 50 and 5 ng/mL in triplicate (footnote b)
[5] = Plasmodium falciparum, FCB1, Table 5, CPX or NRX fragments alone
[6] = CQ-resistant FcB1, IC50 determined from the compound tested at 50, 5, 0.5 µg/mL and 50 and 5 ng/mL in triplicate (footnote b)

melting point: 173.6 to 174.5 °C
Structure (SMILES): CCn1cc(C(=O)N2CCN(c3ccnc4cc(Cl)ccc34)CC2)c(=O)c2cc(F)c(N3CCN(C(=O)C[C@H]4O[C@@H]5O[C@@]6(C)CCC7[C@H](C)CCC([C@H]4C)[C@]75OO6)CC3)cc21 (stereo partly drawn) [Compound 27, 3-(4-(7-chloroquinolin-4-yl)piperazine-1-carbonyl)-1-ethyl-6-fluoro-7-(4-(2-((3R,6R,9R,10R,12R,12aR)-3,6,9-trimethyldecahydro-12H-3,12-epoxy[1,2]dioxepino[4,3-i]isochromen-10-yl)acetyl)piperazin-1-yl)quinolin-4(1H)-one]
IC50 [1, 3]: 0.0066 µM
IC50 [2]: 28.5 nM

melting point: 110.4 to 111.5 °C
Structure (SMILES): CCOC(=O)c1cn(C2CC2)c2cc(N3CCN(C(=O)CC[C@H]4O[C@@H]5O[C@@]6(C)CCC7[C@H](C)CCC([C@H]4C)[C@]75OO6)CC3)c(F)cc2c1=O (stereo partly drawn) [Compound 15, Ethyl 1-cyclopropyl-6-fluoro-4-oxo-7-(4-(3-((3R,6R,9R,10R,12R,12aR)-3,6,9-trimethyldecahydro-12H-3,12-epoxy[1,2]dioxepino[4,3-i]isochromen-10-yl)propanoyl)piperazin-1-yl)-1,4-dihydroquinoline-3-carboxylate]
IC50 [1, 4]: 1.47 µM

Structure (SMILES): CCCCOC(=O)c1cn(C2CC2)c2cc(N3CCNCC3)c(F)cc2c1=O [Compound 39]
IC50 [1, 4]: 13.6 µM
IC50 [1, 5]: 7 µM

Structure (SMILES): CCCCOC(=O)c1cn(C2CC2)c2cc(N3CCN(C(c4ccccc4)(c4ccccc4)c4ccccc4)CC3)c(F)cc2c1=O [Compound 33, Butyl 1-cyclopropyl-6-fluoro-4-oxo-7-(4-tritylpiperazin-1-yl)-1,4-dihydroquinoline-3-carboxylate]
IC50 [1, 4]: 3.9 µM

Structure (SMILES): CCn1cc(C(=O)N2CCN(c3ccnc4cc(Cl)ccc34)CC2)c(=O)c2cc(F)c(N3CCN(C(c4ccccc4)(c4ccccc4)c4ccccc4)CC3)cc21 [Compound 37, 3-(4-(7-chloroquinolin-4-yl)piperazine-1-carbonyl)-1-ethyl-6-fluoro-7-(4-tritylpiperazin-1-yl)quinolin-4(1H)-one]
IC50 [1, 3]: 0.184 µM
IC50 [2]: 307 nM

Structure (SMILES): CCOC(=O)c1cn(CC)c2cc(N3CCN(C(c4ccccc4)(c4ccccc4)c4ccccc4)CC3)c(F)cc2c1=O [Compound 34, Ethyl 1-ethyl-6-fluoro-4-oxo-7-(4-tritylpiperazin-1-yl)-1,4-dihydroquinoline-3-carboxylate]
IC50 [1, 4]: 84.8 µM

melting point: 136 to 137 °C
Structure (SMILES): C[C@@H]1CCC2[C@@H](C)[C@@H](CCC(=O)N3CCN(c4cc5c(cc4F)c(=O)c(C(=O)O)cn5C4CC4)CC3)O[C@@H]3O[C@@]4(C)CCC1[C@@]23OO4 (stereo partly drawn) [Compound 13, 1-cyclopropyl-6-fluoro-4-oxo-7-(4-(3-((3R,6R,9R,10R,12R,12aR)-3,6,9-trimethyldecahydro-12H-3,12-epoxy[1,2]dioxepino[4,3-i]isochromen-10-yl)propanoyl)piperazin-1-yl)-1,4-dihydroquinoline-3-carboxylic acid]
IC50 [1, 4]: 2.91 µM

Structure (SMILES): CCOC(=O)c1cn(C2CC2)c2cc(N3CCNCC3)c(F)cc2c1=O [Compound 38]
IC50 [1, 4]: 53.6 µM

Structure (SMILES): CCCCOC(=O)c1cn(CC)c2cc(N3CCN(C(c4ccccc4)(c4ccccc4)c4ccccc4)CC3)c(F)cc2c1=O [Compound 35, Butyl 1-ethyl-6-fluoro-4-oxo-7-(4-tritylpiperazin-1-yl)-1,4-dihydroquinoline-3-carboxylate]
IC50 [1, 4]: 26.2 µM

Structure (SMILES): CCn1cc(C(=O)O)c(=O)c2cc(F)c(N3CCNCC3)cc21 [NRX, norfloxacin]
IC50 [1, 4]: 81.4 µM

Structure (SMILES): CCOC(=O)c1cn(C2CC2)c2cc(N3CCN(C(c4ccccc4)(c4ccccc4)c4ccccc4)CC3)c(F)cc2c1=O [Compound 32, Ethyl 1-cyclopropyl-6-fluoro-4-oxo-7-(4-tritylpiperazin-1-yl)-1,4-dihydroquinoline-3-carboxylate]
IC50 [1, 4]: 41.9 µM

Structure (SMILES): CC1CCC2C(C)C(CC(=O)O)OC3OC4(C)CCC1C32OO4 (centres unmarked) [Compound 44, reference compound]
IC50 [1, 6]: 0.401 µM
IC50 [1, 4]: 0.401 µM

Structure (SMILES): O=C(c1cn(C2CC2)c2cc(N3CCN(C(c4ccccc4)(c4ccccc4)c4ccccc4)CC3)c(F)cc2c1=O)N1CCN(c2ccnc3cc(Cl)ccc23)CC1 [Compound 36, 3-(4-(7-chloroquinolin-4-yl)piperazine-1-carbonyl)-1-cyclopropyl-6-fluoro-7-(4-tritylpiperazin-1-yl)quinolin-4(1H)-one]
IC50 [1, 4]: 26.5 µM

Structure (SMILES): CC1CCC2C(C)C(CCC(=O)O)OC3OC4(C)CCC1C32OO4 (centres unmarked) [Compound 45, reference compound]
IC50 [1, 6]: 0.264 µM
IC50 [1, 4]: 0.264 µM

Structure (SMILES): O=C(c1cn(C2CC2)c2cc(N3CCNCC3)c(F)cc2c1=O)N1CCN(c2ccnc3cc(Cl)ccc23)CC1 [Compound 42]
IC50 [1, 6]: 0.36 µM
IC50 [1, 4]: 0.36 µM

melting point: 142 to 143 °C
Structure (SMILES): CCOC(=O)c1cn(C2CC2)c2cc(N3CCN(C(=O)C[C@H]4O[C@@H]5O[C@@]6(C)CCC7[C@H](C)CCC([C@H]4C)[C@]75OO6)CC3)c(F)cc2c1=O (stereo partly drawn) [Compound 14, Ethyl 1-cyclopropyl-6-fluoro-4-oxo-7-(4-(2-((3R,6R,9R,10R,12R,12aR)-3,6,9-trimethyldecahydro-12H-3,12-epoxy[1,2]dioxepino[4,3-i]isochromen-10-yl)acetyl)piperazin-1-yl)-1,4-dihydroquinoline-3-carboxylate]
IC50 [1, 4]: 0.121 µM

Structure (SMILES): CCCCOC(=O)c1cn(CC)c2cc(N3CCNCC3)c(F)cc2c1=O [Compound 41]
IC50 [1, 4]: 13.9 µM
IC50 [1, 5]: 8.6 µM

Structure (SMILES): CCOC(=O)c1cn(CC)c2cc(N3CCNCC3)c(F)cc2c1=O [Compound 40]
IC50 [1, 4]: 19.7 µM
IC50 [1, 5]: 45.7 µM

Structure (SMILES): O=C(O)c1cn(C2CC2)c2cc(N3CCNCC3)c(F)cc2c1=O [CPX, ciprofloxacin]
IC50 [1, 4]: 54.1 µM

Structure (SMILES): CCCCOC(=O)c1cn(C2CC2)c2cc(N3CCN(C(=O)CC[C@H]4O[C@@H]5O[C@@]6(C)CCC7[C@H](C)CCC([C@H]4C)[C@]75OO6)CC3)c(F)cc2c1=O (stereo partly drawn) [Compound 17, Butyl 1-cyclopropyl-6-fluoro-4-oxo-7-(4-(3-((3R,6R,9R,10R,12R,12aR)-3,6,9-trimethyldecahydro-12H-3,12-epoxy[1,2]dioxepino[4,3-i]isochromen-10-yl)propanoyl)piperazin-1-yl)-1,4-dihydroquinoline-3-carboxylate]
IC50 [1, 4]: 0.362 µM
